Patent publication US10544083B2, “GPBP inhibition using Q2 peptidomimetics” (FibroStatin, S.L., priority 2009, dated 2020)

Target: T1, GPBP (Homo sapiens, UniProt Q9Y5P4)
T1 sequence (Q9Y5P4 1-624): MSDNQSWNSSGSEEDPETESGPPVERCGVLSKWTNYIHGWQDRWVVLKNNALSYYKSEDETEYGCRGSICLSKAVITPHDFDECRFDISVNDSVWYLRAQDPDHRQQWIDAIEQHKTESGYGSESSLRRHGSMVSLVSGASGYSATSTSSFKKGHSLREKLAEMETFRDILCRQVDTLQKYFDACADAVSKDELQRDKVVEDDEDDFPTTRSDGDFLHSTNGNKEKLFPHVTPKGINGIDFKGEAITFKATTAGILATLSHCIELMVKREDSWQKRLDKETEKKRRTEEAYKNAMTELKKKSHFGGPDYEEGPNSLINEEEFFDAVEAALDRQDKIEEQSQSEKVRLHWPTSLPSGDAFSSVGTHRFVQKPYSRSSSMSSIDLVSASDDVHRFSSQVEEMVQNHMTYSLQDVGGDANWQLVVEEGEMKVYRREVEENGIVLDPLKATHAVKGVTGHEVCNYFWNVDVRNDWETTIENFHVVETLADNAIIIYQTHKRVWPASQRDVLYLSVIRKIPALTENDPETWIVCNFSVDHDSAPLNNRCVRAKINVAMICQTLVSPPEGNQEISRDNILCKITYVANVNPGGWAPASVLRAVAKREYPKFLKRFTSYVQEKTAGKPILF
Assay: not given
Conditions: see U.S. Pat. No. 7,326,768; cited from earlier work

| Compound | inhibition of GPBP autophosphorylation |
| --- | --- |
| LATLSHCIELMVKR [Compound Q2, synthetic peptide representing the five-residue SHCIE motif of GPBP and flanking regions] | efficiently inhibited GPBP autophosphorylation |

Target: T1, GPBP
Assay: not given
Conditions: see U.S. Pat. No. 7,326,768; cited from earlier work
Remark: another data set of the same source

| Compound | α3(IV)NC1 conformer production by GPBP |
| --- | --- |
| LATLSHCIELMVKR [Compound Q2, synthetic peptide representing the five-residue SHCIE motif of GPBP and flanking regions] | reduce α3(IV)NC1 conformer production |

Target: T2, yeast recombinant FLAG-GPBP (Homo sapiens, UniProt Q9Y5P4)
T2 construct: FLAG; made in house
T2 sequence (Q9Y5P4 1-624): T1 sequence (Q9Y5P4 1-624)
Assay: FLAG-GPBP auto-phosphorylation assay
Type: biochemical
Conditions: 10 μM compound, 5 min at 30° C., autoradiography bands quantified, vehicle = 100; read-out: Relative kinase activity (% referred to vehicle)
From the text: Goodpasture antigen-binding protein (GPBP) is a non-conventional Ser/Thr kinase which targets and phosphorylates the non-collagenous (NC1) domain of α3 chain of human type IV collagen [α3(IV)NC1], known as Goodpasture antigen. GPBP expression has been associated with antibody-mediated glomerulonephritis, rheumatoid arthritis and drug-resistance cancer. We have reported that GPBP self-interacts, that aggregation and autophosphorylation regulate kinase activity, and that the Q2 peptide inhibits autophosphorylation and GPBP kinase activity (WO 00/50607). The GPBP kinase inhibitory activity of a number of terphenylic compounds mimicking Q2, a peptide representing a critical GPBP motif which is relevant for GPBP quaternary structure stabilization, have been tested on GPBP autophosphorylation ability The autophosphorylation ability of GPBP has been used to test the GPBP kinase inhibitor activity of several terphenylic compounds (Scheme 18) derived from the chemical structure of Q2 peptide, which in turn represents GPBP peptidic sequence relevant for self-interaction.
Two hundred nanograms of yeast recombinant FLAG-GPBP were subjected to phosphorylation assays in absence (vehicle) or presence of a 10 μM concentration of each of the indicated Q2-peptidomimetic compounds or an intermediate of synthesis used as negative control (C), during 5 min at 30° C. Reactions were subjected to SDS-PAGE, Western blot and autoradiography. The bands in the autoradiography were quantified using Image-Quant TL software. The kinase activity of GPBP in the presence of the indicated compounds was referred to the sample containing the vehicle, which was given a value of 100.
Yeast recombinant FLAG-GPBP production and purification were also performed. GPBP autophosphorylation assay times were limited to 10 min at 30° C.

| Compound | activity at 10 µM |
| --- | --- |
| CCCOc1ccc(-c2ccc(-c3cccc(C)c3)c(C)c2)c(CCC(=O)O)c1 [Compound 24a, 3-[3,2′-dimethyl-4″-propoxy-(1,1′;4′,1″)terphenyl-2″-yl]propionic acid] | 73% |
| Cc1cccc(-c2ccc(-c3ccc(O)cc3CCC(=O)O)cc2CF)c1 [Compound 15a, 3-[2′-(fluoromethyl)-4″-hydroxy-3-methyl-(1,1′;4′,1″)terphenyl-2″-yl]propionic acid] | 79% |
| COc1ccc(-c2ccc(-c3cccc(C)c3)c(C)c2)c(CCC(=O)O)c1 [Compound 22b, 3-[4″-methoxy-3,2′-dimethyl-(1,1′;4′,1″)terphenyl-2″-yl]propionic acid] | 44% |
| COc1ccc(-c2ccc(-c3cccnc3)c(C)c2)c(CCC(=O)O)c1 [Compound 22j, 3-[4-methoxy-3′-methyl-4′-(pyridin-3-yl)biphenyl-2-yl]propionic acid] | 50% |
| COc1ccc(-c2ccc(-c3cccnc3)c(C(F)F)c2)c(CCC(=O)O)c1 [Compound 22l, 3-[3′-(difluoromethyl)-4-methoxy-4′-(pyridin-3-yl)biphenyl-2-yl]propionic acid] | 136% |
| COc1ccc(-c2ccc(-c3cccc(C(F)(F)F)c3)c(CO)c2)c(CCC(=O)O)c1 [Compound 22e, 3-[2′-(hydroxymethyl)-4″-methoxy-3-(trifluoromethyl)-(1,1′;4′,1″)terphenyl-2″-yl]propionic acid] | 129% |
| O=C(O)CCc1cc(O)ccc1-c1ccc(-c2cccc(C(F)(F)F)c2)c(CF)c1 [Compound 15b, 3-[2′-(fluoromethyl)-4″-hydroxy-3-(trifluoromethyl)-(1,1′;4′,1″)terphenyl-2″-yl]propionic acid] | 21% |
| COc1ccc(-c2ccc(-c3cccc(C)c3)c(CF)c2)c(CCC(=O)O)c1 [Compound 22c, 3-[2′-(fluoromethyl)-4″-methoxy-3-methyl-(1,1′;4′,1″)terphenyl-2″-yl]propionic acid] | 123% |
| Cc1cccc(-c2ccc(-c3ccc(O)cc3CCC(=O)O)cc2C(F)F)c1 [Compound 20a, 3-[2′-(difluoromethyl)-4″-hydroxy-3-methyl-(1,1′;4′,1″)terphenyl-2″-yl]propionic acid] | 61% |
| Cc1cccc(-c2ccc(-c3ccc(O)cc3CCC(=O)O)cc2C)c1 [Compound 12a, 3-[4″-hydroxy-2′,3-dimethyl-(1,1′;4′,1″)terphenyl-2″-yl]propionic acid] | 53% |
| O=C(O)CCc1cc(O)ccc1-c1ccc(-c2cccc(C(F)(F)F)c2)c(C(F)F)c1 [Compound 20b, 3-[2′-(difluoromethyl)-4″-hydroxy-3-(trifluoromethyl)-(1,1′;4′,1″)terphenyl-2″-yl]propionic acid] | 77% |
| COc1ccc(-c2ccc(-c3cccc(C)c3)c(C(F)F)c2)c(CCC(=O)O)c1 [Compound 22d, 3-[2′-(difluoromethyl)-4″-methoxy-3-methyl-(1,1′;4′,1″)terphenyl-2″-yl]propionic acid] | 79% |
| O=C(O)CCc1cc(O)ccc1-c1ccc(-c2cccnc2)c(CO)c1 [Compound 1c, 3-[4-hydroxy-3′-(hydroxymethyl)-4′-(pyridin-3-yl)biphenyl-2-yl]propionic acid] | 58% |
| COc1ccc(-c2ccc(-c3cccnc3)c(CO)c2)c(CCC(=O)O)c1 [Compound 22i, 3-[3′-(hydroxymethyl)-4-methoxy-4′-(pyridin-3-yl)biphenyl-2-yl]propionic acid] | 132% |
| Cc1cc(-c2ccc(O)cc2CCC(=O)O)ccc1-c1cccc(C(F)(F)F)c1 [Compound 12b, 3-[4″-hydroxy-2′-methyl-3-(trifluoromethyl)-(1,1′;4′,1″)terphenyl-2″-yl]propionic acid] | 49% |
| Cc1cccc(-c2ccc(-c3ccc(OCC(=O)O)cc3CCC(=O)O)cc2C)c1 [Compound 24b, 3-[4″-(carboxymethoxy)-3,2′-dimethyl-(1,1′;4,1″)terphenyl-2″-yl]propionic acid] | 64% |
| COc1ccc(-c2ccc(-c3cccc(C)c3)c(CO)c2)c(CCC(=O)O)c1 [Compound 22a, 3-[2′-(hydroxymethyl)-4″-methoxy-3-methyl-(1,1′;4′,1″)terphenyl-2″-yl]propionic acid] | 118% |
| COc1ccc(-c2ccc(-c3cccc(C(F)(F)F)c3)c(CF)c2)c(CCC(=O)O)c1 [Compound 22g, 3-[2′-(fluoromethyl)-4″-methoxy-3-(trifluoromethyl)-(1,1′;4′,1″)terphenyl-2″-yl]propionic acid] | 103% |
| COc1ccc(-c2ccc(-c3ccc(OC)c(C)c3)c(C)c2)c(CCC(=O)O)c1 [Compound 32, 3-[4,4″-dimethoxy-3,2′-dimethyl-(1,1′;4′,1″)terphenyl-2″-yl]propionic acid] | 28% |
| COc1ccc(-c2ccc(-c3cccc(C(F)(F)F)c3)c(C(F)F)c2)c(CCC(=O)O)c1 [Compound 22h, 3-[2′-(difluoromethyl)-4″-methoxy-3-(trifluoromethyl)-(1,1′;4′,1″)terphenyl-2″-yl]propionic acid] | 49% |
| Cc1cccc(-c2ccc(-c3ccc(O)cc3C(C)C)cc2CCC(=O)O)c1 [Compound 2a, 3-[4″-hydroxy-2″-isopropyl-3-methyl-(1,1′;4′,1″)terphenyl-2′-yl]propionic acid] | 90% |
| Cc1cccc(-c2ccc(-c3ccc(O)cc3CCC(=O)O)cc2CO)c1 [Compound 1a, 3-[4″-hydroxy-2′-(hydroxymethyl)-3-methyl-(1,1′;4′,1″)terphenyl-2″-yl]propionic acid] | 34% |
| CCCOc1ccc(-c2ccc(-c3cccc(C(F)(F)F)c3)c(C)c2)c(CCC(=O)O)c1 [Compound 24c, 3-[2′-methyl-4″-propoxy-3-(trifluoromethyl)-(1,1′;4′,1″)terphenyl-2″-yl]propionic acid] | 36% |
| COc1ccc(-c2ccc(-c3cccnc3)c(CF)c2)c(CCC(=O)O)c1 [Compound 22k, 3-[3′-(fluoromethyl)-4-methoxy-4′-(pyridin-3-yl)biphenyl-2-yl]propionic acid] | 135% |
| COc1ccc(-c2ccc(-c3cccc(C(F)(F)F)c3)c(C)c2)c(CCC(=O)O)c1 [Compound 22f, 3-[2′-methyl-4″-methoxy-3-(trifluoromethyl)-(1,1′;4′,1″)terphenyl-2″-yl]propionic acid] | 41% |
| O=C(O)CCc1cc(O)ccc1-c1ccc(-c2cccc(C(F)(F)F)c2)c(CO)c1 [Compound 1b, 3-[4″-hydroxy-2′-(hydroxymethyl)-3-(trifluoromethyl)-(1,1′;4′,1″)terphenyl-2″-yl]propionic acid] | 131% |
